Publication PMC5349447, “Applying a high-throughput fluorescence polarization assay for the discovery of chemical probes blocking La:RNA interactions in vitro and in cells” (PLoS ONE, 2017)

Columns and labels:
[1] = system: T1, gfp-tagged La-WT association with cellular mRNAs; experiment: RNA immunoprecipitation (RIP) with RT-qPCR in HEK293 expressing gfp-tagged La; assay type: cell-based, human; details: 150 μM, HEK293 gfpLa
T1 construct: full length La (La wildtype, La-WT); expressed in transfected cells
Procedure: RIP experiments were performed with HEK293 stably expressing gfp (green fluorescent protein)-tagged La wiltype (La-WT) protein as described recently. The compound C2:01 was dissolved in 100% DMSO to a concentration of 100 mM. Subsequently, the compound was diluted in media to 10 mM (10% DMSO) and 1 mM (1% DMSO). The 1 mM stock was diluted 6.7-fold in culture media to reach a final concentration of 150 μM (0.15% DMSO). Cells were washed with ice-cold 1x PBS, and lysed by incubating with lysis buffer (20 mM Tris-HCl, (pH 7.4), 150 mM NaCl, 1% IGEPAL CA-630, 10% glycerol, 1 mM EDTA, 50mM NaF, and 1 mM DTT, supplemented with RNase inhibitors and protease inhibitors) on tube rotator for 15 min at 4°C. The cell lysate was sonicated (3 sec for 10 times at power 3, Sonic Dismembrator Model 100) and cleared by centrifugation at 14,000 g at 4°C for 20 min. The cleared lysate was incubated with anti-gfp magnetic beads (MBL International) on the orbital rotor at 4°C overnight. The beads were washed four times with wash buffer I (50 mM Tris-HCl (pH 7.4), 300 mM NaCl, 0.05% IGEPAL CA-630, 20 mM EDTA, 1 mM DTT, and 1 mM MgCl2) and three times with wash buffer II (50 mM Tris-HCl (pH 7.4), 300 mM NaCl, 0.05% IGEPAL CA-630, 20 mM EDTA, 1 mM DTT, 1 mM MgCl2 and 1 M urea)[29].
For preparation of the RNA, the beads were resuspended in wash buffer II and RNA was extracted by applying the Phenol-Chloroform-Isoamyl alcohol method. […] The RNA pellet was dissolved in RNase-DNase-free H2O and quantitated by NanoDrop spectrophotometer and subjected to RT-qPCR analysis. By RT-qPCR the La-specific RIP-RNA pellets (gfp-tagged La) were tested for the presence of Bcl2, CCND1, L37, L22 and S6 mRNA and none of those were detected in the control RIP experiments (gfp alone). The enrichment was calculated by establishing standard curves for specific mRNAs using the RT^2 qPCR Primer Assays (Qiagen): Bcl2 (PPH00079B), CCND1 (PPH00128F), L37 (QT00014105), L22 (QT00079982), S6 (QT02505328) as described recently. […]

[2] = system: Bcl2 protein level in SCC 22B cells; experiment: Immunoblot for Bcl2, SCC 22B; assay type: cell-based, human; details: cisplatin and C2.01 (50 μM) versus vehicle

Structure (SMILES): Cc1ccc(C(=O)c2ccccc2C(=O)O)c(O)c1 [C2.01, 2-(2-hydroxy-4-methylbenzoyl)benzoic acid]
- binding of La to Bcl2 mRNA in cells (RIP) [1]: selectively impaired
- binding of La to CCND1 mRNA in cells (RIP) [1]: selectively impaired
- binding of La to TOP mRNAs encoding RPL37, RPL5 and RPSK6 in cells (RIP) [1]: no effect
- Bcl2 protein levels (immunoblot) [2]: reduced
